Test systems include HCT-116; COLO 205; NCI/ADR-RES; Malme-3M; SNB-19; HCT-15; UO-31; SF-268; OVCAR-8; OVCAR-4; OVCAR-3; IGROV-1; RPMI-8226; HOP-62; U-251; SK-MEL-28; SR; MOLT-4; HCC 2998.
What all share (assay): NCI-60 cell line screen, 48 h

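Following 48 hours of exposure in 96-well plates, responses at five concentrations were used to interpolate endpoints linearly. At the GI50, growth is halved.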 Calls of active or inactive are those of the source. Rule as the data show it: active = GI50 up to about 1.1 µM and inactive = higher. A value given as a limit tells only on which side of the number the result lay.

For the compound `Cc1cc([N+](=O)[O-])c(C)c(Br)c1C`, the GI50 in the test on HCT-116 is > 100 µM (inactive); in the test with COLO 205 it was > 100 µM (inactive); in the test with NCI/ADR-RES, > 100 µM (inactive); in the test on Malme-3M it was > 100 µM (inactive); in the test on SNB-19, > 100 µM (inactive); in the test on HCT-15, over 100 µM. Besides, the GI50 with UO-31, with SF-268, in the test with OVCAR-8, in the test on OVCAR-4, in the test on OVCAR-3 and in the test on IGROV-1 was > 100 µM (inactive) in each case. The GI50 with RPMI-8226, with HOP-62, with U-251 and in the test with SK-MEL-28 was > 100 µM (inactive) throughout.
As for `CCOc1ncn(-c2ccc(NC(=S)NC34CC5CC(CC(C5)C3)C4)cc2)n1`, the GI50 in the test on HCT-116 is 68.4 µM (inactive); in the test with COLO 205 it was > 100 µM (inactive); with SR it was > 100 µM (inactive); in the test with MOLT-4 it was > 100 µM (inactive); in the test on SNB-19 it was 46.1 µM (inactive); in the test with HCT-15, over 100 µM. Further, the GI50 in the test with UO-31 is > 100 µM (inactive); in the test with SF-268, > 100 µM (inactive); in the test on OVCAR-8 it was 22.8 µM (inactive); in the test with OVCAR-4, 22.3 µM (inactive); in the test on OVCAR-3, > 100 µM (inactive); in the test with IGROV-1, > 100 µM (inactive). Also, the GI50 is > 100 µM (inactive) with RPMI-8226; > 100 µM (inactive) in the test on HCC 2998; 35.2 µM (inactive) with HOP-62; > 10 µM (inactive) in the test on U-251; 61.8 µM (inactive) with SK-MEL-28.
In the case of `CCCCCCCC(CC(=O)NC(CO)C(=O)NC(CO)CC(C)C)OC(=O)CC(CCCCCCC)OC(=O)CC(CCCCCCC)OC1OC(C)C(O)C(OC2OC(C)C(O)C(OC(C)=O)C2O)C1O` (stereo unspecified), the GI50 with HCT-116 was 13.1 µM (inactive); with COLO 205, 5.86 µM (inactive); in the test on SR it was 3.27 µM (inactive); in the test on MOLT-4, 2.81 µM (inactive); in the test with Malme-3M it was 16 µM (inactive); with SNB-19, 6.43 µM (inactive). Moreover, the GI50 is 14.9 µM (inactive) in the test with UO-31; 12 µM (inactive) in the test with SF-268; 13.9 µM (inactive) in the test with OVCAR-8; 12.8 µM (inactive) with OVCAR-4; 10.7 µM (inactive) in the test with OVCAR-3; 12.3 µM (inactive) in the test on IGROV-1. Further, the GI50 is 11.2 µM (inactive) with HCC 2998, 12.2 µM (inactive) in the test on HOP-62, 4.2 µM (inactive) in the test on U-251 and 12.2 µM (inactive) in the test on SK-MEL-28.
For the compound `CCCCOC(=O)C1CN2C(=NC1(C(F)(F)F)C(F)(F)F)Sc1ccccc12` (stereo unspecified), the GI50 in the test on HCT-116 was 33 µM (inactive); with COLO 205, 31.8 µM (inactive); in the test on NCI/ADR-RES, 27 µM (inactive); with MOLT-4 it was 23 µM (inactive); in the test on Malme-3M, 53.1 µM (inactive); in the test with SNB-19, 96.2 µM (inactive). In addition, the GI50 with HCT-15 is 45.6 µM; in the test with UO-31, 19.2 µM (inactive); with SF-268, 33.8 µM (inactive); in the test on OVCAR-8 it was 43.6 µM (inactive); in the test on OVCAR-4, 45.5 µM (inactive); in the test on OVCAR-3, 58.5 µM (inactive). The GI50 in the test with IGROV-1 is 11 µM (inactive); in the test with RPMI-8226, 26.1 µM (inactive); in the test on HOP-62 it was 82.4 µM (inactive); in the test on U-251, 41.4 µM (inactive); in the test with SK-MEL-28 it was 74.5 µM (inactive).
For the compound `O=C(c1ccccc1)C1S(=O)(=O)OCCOS1(=O)=O`, the GI50 in the test on HCT-116 is > 100 µM (inactive); in the test with COLO 205 it was > 100 µM (inactive); in the test on SR, > 100 µM (inactive); in the test on MOLT-4, > 10 µM (inactive); in the test with Malme-3M, > 100 µM (inactive); in the test on SNB-19, > 100 µM (inactive). In addition, the GI50 in the test on UO-31, with SF-268, in the test with OVCAR-8, with OVCAR-4, with OVCAR-3 and with IGROV-1 was > 100 µM (inactive) in each case. In addition, the GI50 with RPMI-8226, in the test with HCC 2998, in the test with HOP-62 and in the test with SK-MEL-28 was > 100 µM (inactive) throughout.
Turning to `O=C1C2c3[nH]c4ccccc4c3C3CCCCCCC3C2C(=O)N1c1ccccc1` (stereo unspecified), the GI50 was 7.64 µM (inactive) in the test with COLO 205; 14.9 µM (inactive) with SR; > 10 µM (inactive) with MOLT-4; 3.33 µM (inactive) with Malme-3M; 22.3 µM in the test on HCT-15; 21.6 µM (inactive) with SF-268. Also, the GI50 is 4.32 µM (inactive) in the test on OVCAR-8; 3.87 µM (inactive) with OVCAR-4; 4.35 µM (inactive) with OVCAR-3; > 10 µM (inactive) in the test with IGROV-1; 13.4 µM (inactive) in the test with RPMI-8226; 12.3 µM (inactive) in the test on HCC 2998. Moreover, the GI50 is 4.46 µM (inactive) with U-251 and 14.6 µM (inactive) in the test with SK-MEL-28.
For `CC(=O)O[C@H]1CCC2[C@@H]3CCC4Cc5nc6c(nc5C[C@]4(C)C3CC[C@@]21C)CC1CC[C@@H]2C(CC[C@@]3(C)C2CC[C@@H]3C(C)CCCC(C)C)[C@@]1(C)C6` (stereo partly specified), the GI50 with HCT-116, with COLO 205, with NCI/ADR-RES, in the test with MOLT-4, in the test with Malme-3M and with SNB-19 was > 100 µM (inactive) each time. For the same compound, the GI50 with HCT-15 was over 100 µM; in the test with UO-31, > 100 µM (inactive); in the test with SF-268 it was > 100 µM (inactive); with OVCAR-8 it was > 100 µM (inactive); with OVCAR-4, > 100 µM (inactive); in the test on OVCAR-3, > 100 µM (inactive). Besides, the GI50 with IGROV-1, in the test on RPMI-8226, in the test with HOP-62, in the test with U-251 and in the test with SK-MEL-28 was > 100 µM (inactive) each time.
In the case of `O=c1c(-c2ccccc2Cl)coc2cc(F)ccc12`, the GI50 is 31.8 µM (inactive) with HCT-116; 44.7 µM (inactive) in the test with COLO 205; 19.5 µM (inactive) with NCI/ADR-RES; 22 µM (inactive) in the test with MOLT-4; 22.9 µM (inactive) with SNB-19; 31.8 µM with HCT-15. The GI50 was 20.4 µM (inactive) in the test with UO-31; 40.7 µM (inactive) in the test on SF-268; 33.7 µM (inactive) with OVCAR-8; > 100 µM (inactive) in the test with OVCAR-4; 30.7 µM (inactive) with OVCAR-3; 6.07 µM (inactive) with IGROV-1. Besides, the figures for the GI50 in the test with HOP-62, in the test with U-251 and with SK-MEL-28 were 22.2 µM (inactive), 10.2 µM (inactive) and 63.5 µM (inactive), respectively.
Turning to `CC/C=C/c1cc2cc[nH]c2c2c1C(C)C[C@@H]2C` (stereo partly specified), the GI50 is 15.7 µM (inactive) in the test with HCT-116; 18.2 µM (inactive) in the test on COLO 205; 18.8 µM (inactive) with MOLT-4; > 100 µM (inactive) in the test with Malme-3M; 22.5 µM in the test on HCT-15; 24.9 µM (inactive) in the test on UO-31. The GI50 was 26.1 µM (inactive) in the test with OVCAR-8; 18.9 µM (inactive) in the test with OVCAR-3; 40.4 µM (inactive) in the test with IGROV-1; 21.6 µM (inactive) with RPMI-8226; > 10 µM (inactive) in the test with HCC 2998; 23.4 µM (inactive) in the test with U-251. In the test on SK-MEL-28, the GI50 is 22.8 µM (inactive).
